Results on two molecules are retold here after publication PMC6571673, “Cytostatic and Cytotoxic Natural Products against Cancer Cell Models” (Molecules, 2019).

Data set [1] has as its system SUP-B15. Briefly: Cell cycle analysis (PI DNA content, flow cytometry). It counts as cell-based, human. The note with it: SUP-B15, 24 h; silvestrol 5 µM, 8 5 µM, 9 10 µM, 10 5 µM, 12 10 µM, 13 10 µM. The procedure:
(§1) The samples were probed with AnnexinV-FITC (Roche/Boehringer Mannheim, Indianapolis, IN, USA) according to the manufacturer’s instructions. KOPN-8 or SUB-P15 cells were plated (1.00 × 10^6 cells/plate) and incubated for 12 h and incubated at 37 °C. Then, cells were treated with compounds or controls for 24 h. Cells were stained with AnnexinV-FITC, PI and the staining profiles were determined with FACScan and Cell-Quest software. For cellular DNA content, the same cell treatment as above was performed. Then, cells were fixed in cold 75% ethanol, treated with RNase and then stained with PI solution (50 µg/mL). Cell cycle distribution was analyzed with the FACSCalibur analyzer (BD Biosciences, Franklin Lakes, NJ, USA) and Cell-Quest software. The percentage of DNA content at different phases of the cell cycle was analyzed with ModFit-software (version 5.0, Verity Software House, Topsham, ME, USA).
On the technique in general: A flow cytometer gives signals particle by particle.

Data set [2] relates to KOPN-8. Described as above. The note with it: KOPN-8, 24 h; silvestrol 5 µM, 8 5 µM, 9 10 µM, 10 5 µM, 12 10 µM, 13 10 µM. In kind it is cell-based, human. How it is done: as §1
The test system of data set [3] is SUP-B15. The data set is described as follows: ApoTox-Glo triplex assay. The note with it: SUP-B15, 36 h; 9 0.2–100 µM, 10 0.02–10 µM. It counts as cell-based, human. How it is done:
Cells (9.5 × 10^4 cells/well in 75 µL) were dispensed in 96-well black flat bottom (8807BC, Corning) plates. The cells were incubated for 12 h at 37 °C and treated with compounds (25 µL) for 36 h. DMSO was used as a negative control and camptothecan was used as the positive control. Then, the experiment was stopped by adding the Viability/Cytotoxicity Reagent, and briefly mixed by orbital shaking (300–500 rpm for ~30 s). Plates were incubated for 30 min at 37 °C and fluorescence was measured at the wavelength 400Ex/505Em for viability and 485Ex/520Em for cytotoxicity in an Envision plate reader (Perkin Elmer). Finally, the Caspase-Glo® 3/7 Reagent was added, and the plates were mixed by orbital shaking (300–500 rpm for ~30 s), followed by an additional 30 min incubation at RT. Luminescence was recorded with a plate reader (Envision, Perkin Elmer) to capture caspase 3/7 activation and determine apoptosis induction.

A short description of data set [4]: PAMPA assay. It counts as in vitro ADME. The text has this:
(§2) To gain further information regarding intracellular compound localization, studies were extended to include a marker for the ER (Figure 8). The staining pattern for the individual probes are shown in Figure 8A (ER), Figure 8B (Lysosome) and Figure 8D (probe 9a). […] Moreover, when all three channels were merged, white specks were observed, indicating co-localization of probe 9a with cellular structures that are stained by both ER and lysosomal marker dyes (Figure 8F). […] These mechanisms provide a plausible explanation for the lower potency of compound 9 compared to compound 10. Finally, in vitro ADME (absorption, distribution, metabolism, and elimination) profiles were evaluated for compounds 9 and 10 to compare with the obtained cellular data (Supplementary Material, Figure S10). The aqueous solubility properties at physiological pH (7.40) of compounds 9 and 10 were good compared to controls. […] The combined findings indicate that the steric-effects of the hydroxysuccinate appendage of compound 10 renders it less prone to degradation by lysosomal activity or other competing cellular removal mechanisms.

A short description of data set [5]: Aqueous solubility. The note with it: physiological pH (7.40), compared to controls. It counts as physicochemical.
From the text: as §2

Data set [6] relates to MDA-MB-231. Briefly: Propidium iodide (PI) assay, 48 h. Particulars: MDA-MB-231, 48 h. It counts as cell-based, human.
Method: The first step was to evaluate if the compounds display cytotoxicity against the adherent cells. Propidium iodide (PI) assay was performed for the drug resistant solid tumor cellular models (triple negative breast cancer models: SUM149 and MDA-MB-231) for 48 h (Figure 5) [30, 31].
A short description of data set [7]: Plasma stability assay. In kind it is in vitro ADME. Particulars: read-out: plasma stability t1/2.
From the text: as §2

Data set [8] in a line: caco-2 permeability assay. The note with it: human, read-out: efflux ratio, B2A/A2B. In kind it is in vitro ADME.
From the text: as §2
In general terms: Passage across Caco-2 layers is used to estimate intestinal permeability.

Data set [9] is described as follows: Simulated gastric fluid (SGF) stability. The note with it: read-out: SGF stability t1/2. It counts as in vitro ADME.
From the text: as §2

Data set [10] is described as follows: Metabolic stability in liver microsomes. It counts as in vitro ADME. Particulars: for half-life: read-out: metabolic stability t1/2.
From the text: as §2
On the technique in general: Liver microsomes are a subcellular fraction often used to study metabolism.

Like-named read-outs stand apart in the source and are kept apart here.

For `COC1=C[C@]23CCCN2CCc2cc4c(cc2[C@@H]3[C@@H]1O)OCO4` [Compound 9, cephalotaxine], the cell cycle effect entry in [1] and in data set [2] was “no significant cell arrest” in each case. The “caspase 3/7 activity” value in data set [3] is “increased caspase 3/7 activity”. In data set [3], the “cytotoxicity by membrane integrity (bis-AAF-RF110)” value is given as “little cytotoxic effects”. In [3], the “viability (GF-AFC)” value is “decreased viability”. The PAMPA permeability result in [4] (PAMPA) is given as “favorable permeability properties”. In data set [5], the aqueous solubility entry is listed as “good”. Also, the “activity in PI assay” value in data set [6] is “substantial activity”. Moreover, the half-life in data set [7] (human plasma) was more than 25 h; in data set [7] (mouse plasma), more than 25 h; in [9] (simulated gi fluid) it was more than 33 h. For the same molecule, in [8], the efflux ratio was approximately 2. Besides, the “metabolic stability t1/2” value in data set [10] (human liver microsomes) and in data set [10] (mouse liver microsomes) was “rapidly degraded” each time.

With `COC(=O)C[C@](O)(CCCC(C)(C)O)C(=O)O[C@@H]1C(OC)=C[C@]23CCCN2CCc2cc4c(cc2[C@H]13)OCO4` [Compound 10, homoharringtonine, reference compound], the cell cycle effect entry in data set [1] and in data set [2] was “almost identical to silvestrol” each time. Further, the “caspase 3/7 activity” value in data set [3] is “increased caspase 3/7 activity”. In [3], the “cytotoxicity by membrane integrity (bis-AAF-RF110)” value was “little cytotoxic effects”. For the same molecule, in data set [3], the “viability (GF-AFC)” value is given as “decreased viability”. Besides, in [4], the PAMPA permeability entry is given as “favorable permeability properties”. Besides, in data set [5], the aqueous solubility result is “good”. The “activity in PI assay” value in data set [6] is “substantial activity”. Also, the half-life was more than 12 h in data set [7] (human plasma); less than 1 h in data set [7] (mouse plasma); more than 33 h in [9]; not below 1 h in [10] (human liver microsomes); not below 1 h in [10] (mouse liver microsomes). Also, in [8], the efflux ratio is less than 1.
